The text below walks through data of ChEMBL document CHEMBL4673385, “Discovery of Potent Inhibitors of Streptococcus mutans Biofilm with Antivirulence Activity” (ACS Med Chem Lett, 2021).

Data set [1] concerns Streptococcus mutans. In words: Antibiofilm activity against Streptococcus mutans UA159 infected in Fischer 344 rat assessed as buccal score at 100 uM topically administered measured after 43 days. Format: functional, organism-based. Particulars: time 43.0 day.
Data set [2] is described as follows: Inhibition of Gtf in Streptococcus mutans UA159 assessed as reduction in glucans level by Coomassie blue dye based SDS-PAGE analysis.
Data set [3] relates to Streptococcus mutans. As to the kind of experiment: Antibiofilm activity against Streptococcus mutans UA159 infected in Fischer 344 rat assessed as sulcal score at 100 uM topically administered measured after 43 days. In kind it is functional, organism-based. The following applies: time 43.0 day.
For the next data set, the system named is Streptococcus gordonii. In words: Bactericidal activity against Streptococcus gordonii DL1 assessed as reduction in bacterial growth at 100 uM after 24 hrs. Format: functional.
The test system of data set [4] is Streptococcus mutans. In words: Antibiofilm activity against Streptococcus mutans UA159 infected in Fischer 344 rat assessed as proximal surface score at 100 uM topically administered measured after 43 days. Format: functional, organism-based. The following applies: time 43.0 day.
Data set [5] in a line: Toxicity in Fischer 344 rat infected with Streptococcus mutans UA159 assessed as reduction in body weight at 100 uM topically administered measured after 43 days. Particulars: in vivo, topical_or_ocular, 1032 h, time 43 day.

Molecules are shown by their SMILES. The source made the active and inactive calls. No cut-off for these calls is given here.

With `NC(=O)c1ccccc1NC(=O)c1cc2cc([N+](=O)[O-])ccc2s1`, the outcome with Streptococcus mutans [1], in the data set with Streptococcus mutans [3] and with Streptococcus mutans [4] was Active. In addition, in data set [2], the half-maximal inhibitory concentration (IC50) is 10 µM. For the same molecule, in the data set on Streptococcus gordonii, the outcome was inactive.

In the case of `NC(=O)c1ccccc1NC(=O)c1cnc2ccccc2c1`, the outcome in the data set on Streptococcus mutans [1], with Streptococcus mutans [3] and with Streptococcus mutans [4] was Active. Moreover, the outcome with Streptococcus gordonii was inactive. In addition, the Activity entry in data set [5] is listed as “Non-Toxic”.

Broadly, the IC50 is the midpoint of a concentration-inhibition curve.
